In assay [1] the test system is ER-HoxA9 myeloid progenitors, GFP+/MAC1+ differentiation flow cytometry. Put plainly: GFP+/MAC1+ double-positive induction in arrested progenitors – HOXA9ER cells, flow cytometry, Powder Set01 subset01, dose response (AID 652121).
Assay in assay [2]: as above
The following applies: ER-HoxA9 myeloid progenitors, GFP+/MAC1+ differentiation flow cytometry; at 10 µM (top of the series).

Active and inactive are the calls of the source.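 Rule for the calls: active = at least 15% of live cells showing both differentiation markers at top dose, and half-maximal dose below 10 µM; inactive = the rest.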

For `Cc1ccc(Nc2nc(=O)c3cccnc3s2)c(Br)c1`, the EC50 in assay [1] was 1.83 µM.

On to `O=C(CCNC(=O)c1ccc(Cl)cc1)NC1CCCc2ccccc21` (stereo not drawn), for which the percent double positive differentiation in assay [2] was 44% (inactive).

For the molecule `O=C(O)c1cccnc1Nc1ccc(Cl)cc1`, the percent double positive differentiation in assay [2] is 28.8% (inactive).
